Results as given in paper PMC6214108, “Synthesis and In Vitro Antitumor Activity of Novel Bivalent β-Carboline-3-carboxylic Acid Derivatives with DNA as a Potential Target” (International Journal of Molecular Sciences, 2018).

How the values were obtained:
Type in all cases: cell-based
[1] = test system: SMMC-7721 (liver carcinoma) cell line; assay: MTT cytotoxicity assay, SMMC-7721; details: Homo sapiens, 48 h, mean of three independent experiments, read-out: IC50 (μM) Mean ± SD, SMMC-7721
Experimental: (§1) All cell lines (A549, SGC-7901, Hela, SMMC-7721, and MCF-7) were purchased from the American Type Culture Collection (Manassas, VA, USA), and were cultured in Dulbecco’s modified Eagle’s medium (DMEM, HycloneLaboratories Inc., Logan, Utah, USA) supplemented with 10% fetal bovine serum (FBS, Gibco&Invitrogen, Carlsbad, CA, USA) at 37 °C and 5% CO2.
(§2) The cytotoxic activities of β-carboline-3-carboxylic acid derivatives were investigated by the MTT method, as previously described. Cells (1 × 10^4 cells per well) seeded into 96-well plates (JET, Guangzhou, China) were incubated with DMEM containing various concentrations (2.5, 5, 10, 20, 40, and 80 μM) of β-carbolines (4A, 4B, 4C, 4D, 6a-6f, 6g-6l, 6m-6r, and 6s-6x) for 48 h at 37 °C and 5% CO2. Then, 10 µL of 5 mg/mL MTT reagent dissolved in PBS (Phosphate buffered saline) was added per well, and plates were incubated at 37 °C for 4 h. The medium was carefully removed and 100 µL dimethyl sulfoxide (DMSO) was added to dissolve the formazan crystals. The absorbance was measured at 490 nm with a microplate reader (ThermoFisher Scientific Inc., Waltham, MA, USA). The β-carbolines were dissolved in DMSO as stock solutions (10 mM) at −20 °C, and diluted in the final experimental solution using DMEM before use. A549 (lung carcinoma), SGC-7901 (gastric carcinoma), Hela (cervical carcinoma), SMMC-7721 (liver carcinoma), and MCF-7 (breast carcinoma) cell lines were used for the antitumor activity screening. The IC50 values were the mean values of three independent experiments.

[2] = test system: MCF-7 (breast carcinoma) cell line; assay: MTT cytotoxicity assay, MCF-7; details: Homo sapiens, MCF7, 48 h, mean of three independent experiments, read-out: IC50 (μM) Mean ± SD, MCF-7
Experimental: as §1, §2

[3] = test system: Hela (cervical carcinoma) cell line; assay: MTT cytotoxicity assay, Hela; details: Homo sapiens, 48 h, mean of three independent experiments, read-out: IC50 (μM) Mean ± SD, Hela
Experimental: as §1, §2

[4] = test system: MRC5 (normal lung cell) cell line; assay: MTT cytotoxicity assay, MRC5; details: Homo sapiens, 48 h
Experimental: [The procedure below names another cell line; the source lists this cell line under the same test.] as §2

[5] = test system: A549 (lung carcinoma) cell line; assay: MTT cytotoxicity assay, A549; details: Homo sapiens, 48 h, mean of three independent experiments, read-out: IC50 (μM) Mean ± SD, A549
Experimental: as §1, §2

[6] = test system: SGC-7901 (gastric carcinoma) cell line; assay: MTT cytotoxicity assay, SGC-7901; details: Homo sapiens, 48 h, mean of three independent experiments, read-out: IC50 (μM) Mean ± SD, SGC-7901
Experimental: as §1, §2

SMILES	IC50 [1] [µM]	IC50 [2] [µM]	IC50 [3] [µM]	IC50 [4] [µM]	IC50 [5] [µM]	IC50 [6] [µM]
Cc1ccc(Cn2c3ccccc3c3cc(C(=O)OCCCCCCOC(=O)c4cc5c6ccccc6n(Cc6ccc(C)cc6)c5cn4)ncc32)cc1 [Compound 6p]	26.8 ± 0.51	55 ± 2.22	15.7 ± 0.33	47.6 ± 0.02	19.28 ± 0.02	17.8 ± 0.22
Cc1ccccc1Cn1c2ccccc2c2cc(C(=O)OCCCCOC(=O)c3cc4c5ccccc5n(Cc5ccccc5C)c4cn3)ncc21 [Compound 6h]	24.7 ± 0.5	76.7 ± 5	45.8 ± 0.55	50.78 ± 0.09	8.09 ± 0.25	17.8 ± 0.93
Cc1ccc(Cn2c3ccccc3c3cc(C(=O)OCCCCCCCCOC(=O)c4cc5c6ccccc6n(Cc6ccc(C)cc6)c5cn4)ncc32)cc1 [Compound 6q]	29.8 ± 0.93	43.1 ± 2.01	45.2 ± 1.66	42.06 ± 0.09	23.65 ± 0.05	35.8 ± 0.82
O=C(OCCCCCOC(=O)c1cc2c3ccccc3n(Cc3ccccc3)c2cn1)c1cc2c3ccccc3n(Cc3ccccc3)c2cn1 [Compound 6c]	55.15 ± 0.03	76.9 ± 3.01	18.15 ± 0.03	39.34 ± 0.11	17.65 ± 0.09	18.72 ± 0.07
COC(=O)c1cc2c3ccccc3n(Cc3ccc(C)cc3)c2cn1 [Compound 4C]	> 80	> 80	42.6 ± 0.98	35.35 ± 0.3	28.06 ± 0.13	47.98 ± 0.09
Cc1ccccc1Cn1c2ccccc2c2cc(C(=O)OCCCCCCCCOC(=O)c3cc4c5ccccc5n(Cc5ccccc5C)c4cn3)ncc21 [Compound 6k]	33.9 ± 0.52	44.9 ± 2.99	36.7 ± 2.02	65.85 ± 0.07	37.4 ± 2.08	35 ± 2.09
Cc1ccccc1Cn1c2ccccc2c2cc(C(=O)OCCCOC(=O)c3cc4c5ccccc5n(Cc5ccccc5C)c4cn3)ncc21 [Compound 6g]	73.5 ± 8.06	53.1 ± 2.28	17.99 ± 0.15	32.61 ± 0.1	18.3 ± 0.28	29.4 ± 1.03
Cc1ccc(Cn2c3ccccc3c3cc(C(=O)OCCCCOC(=O)c4cc5c6ccccc6n(Cc6ccc(C)cc6)c5cn4)ncc32)cc1 [Compound 6n]	42.7 ± 2.18	49.1 ± 2.23	28 ± 0.99	26.39 ± 0.01	13.4 ± 0.35	37.8 ± 1.02
O=C(OCCCOC(=O)c1cc2c3ccccc3n(Cc3ccccc3)c2cn1)c1cc2c3ccccc3n(Cc3ccccc3)c2cn1 [Compound 6a]	25.7 ± 0.32	73.5 ± 0.88	17.89 ± 0.03	32.57 ± 0.1	24.27 ± 0.12	17.76 ± 0.17
Cc1ccccc1Cn1c2ccccc2c2cc(C(=O)OCCCCCCOC(=O)c3cc4c5ccccc5n(Cc5ccccc5C)c4cn3)ncc21 [Compound 6j]	16.68 ± 0.03	64.5 ± 3.31	18.1 ± 1.03	41 ± 0.07	12.18 ± 0.06	26.3 ± 1.03
Cc1ccc(Cn2c3ccccc3c3cc(C(=O)OCCCOC(=O)c4cc5c6ccccc6n(Cc6ccc(C)cc6)c5cn4)ncc32)cc1 [Compound 6m]	33.32 ± 0.03	28.43 ± 0.28	17.95 ± 0.02	49.05 ± 0.12	19.84 ± 0.04	18.4 ± 0.31
O=C(OCCCCCCCCOC(=O)c1cc2c3ccccc3n(Cc3ccccc3)c2cn1)c1cc2c3ccccc3n(Cc3ccccc3)c2cn1 [Compound 6e]	75.4 ± 0.89	> 80	54 ± 0.56	> 100	50.3 ± 3.15	69.97 ± 0.13
Cc1ccc(Cn2c3ccccc3c3cc(C(=O)OCCCCCOC(=O)c4cc5c6ccccc6n(Cc6ccc(C)cc6)c5cn4)ncc32)cc1 [Compound 6o]	36.62 ± 0.12	49.4 ± 1.65	18.8 ± 0.46	31.28 ± 0.07	11.2 ± 0.61	17.18 ± 0.03
O=C(OCCCCCCOC(=O)c1cc2c3ccccc3n(Cc3ccccc3)c2cn1)c1cc2c3ccccc3n(Cc3ccccc3)c2cn1 [Compound 6d]	33.49 ± 0.01	75.5 ± 2.32	32.36 ± 0.02	66.99 ± 0.1	40.03 ± 0.15	58.4 ± 0.72
COC(=O)c1cc2c3ccccc3n(Cc3ccccc3)c2cn1 [Compound 4A]	> 80	> 80	> 80	35.6 ± 0.3	> 80	> 80
O=C(OCCCOC(=O)c1cc2c3ccccc3n(Cc3ccccc3F)c2cn1)c1cc2c3ccccc3n(Cc3ccccc3F)c2cn1 [Compound 6s]	14.71 ± 0.08	25.2 ± 1.12	13.77 ± 0.11	22.82 ± 0.02	6.12 ± 0.03	8.06 ± 0.08
O=c1[nH]cc(F)c(=O)[nH]1 [Compound 5-FU, 5-fluorouracil, reference compound]	52.3 ± 2.06	57.7 ± 1.39	> 80	16.3 ± 0.3	15.39 ± 0.09	> 80
O=C(OCCCCCCOC(=O)c1cc2c3ccccc3n(Cc3ccccc3F)c2cn1)c1cc2c3ccccc3n(Cc3ccccc3F)c2cn1 [Compound 6v]	24.65 ± 0.06	42.4 ± 2.08	22.9 ± 1.36	67.75 ± 0.11	7.95 ± 0.06	8.6 ± 0.13
O=C(OCCCCOC(=O)c1cc2c3ccccc3n(Cc3ccccc3)c2cn1)c1cc2c3ccccc3n(Cc3ccccc3)c2cn1 [Compound 6b]	66.53 ± 0.31	70.9 ± 2.33	18.2 ± 0.52	64.44 ± 0.09	12.26 ± 0.04	15.5 ± 0.32
O=C(OCCCCOC(=O)c1cc2c3ccccc3n(Cc3ccccc3F)c2cn1)c1cc2c3ccccc3n(Cc3ccccc3F)c2cn1 [Compound 6t]	18.26 ± 0.18	25.7 ± 1.21	15.2 ± 0.32	> 100	12.4 ± 0.59	9.01 ± 0.19
O=C(OCCCCCCCCOC(=O)c1cc2c3ccccc3n(Cc3ccccc3F)c2cn1)c1cc2c3ccccc3n(Cc3ccccc3F)c2cn1 [Compound 6w]	44.57 ± 0.02	76.3 ± 3.36	31.3 ± 1.88	60.78 ± 0.16	16.5 ± 0.33	29.98 ± 0.07
